Assay results taken from PMC9603864, “Novel Class of Proteasome Inhibitors: In Silico and In Vitro Evaluation of Diverse Chloro(trifluoromethyl)aziridines” (International Journal of Molecular Sciences, 2022).
Like-named read-outs stand apart in the source and are kept apart here.

Columns and labels:
Type in all cases: biochemical
[1] = target: T1, 20S proteasome β5 subunit (chymotrypsin-like activity) (Homo sapiens, UniProt P28074); test: fluorometric ChT-L assay with Suc-LLVY-AMC, continuous; IC50 […], Ki by Cheng-Prusoff
T1 construct: gene PSMB5; whole human 20S proteasome (Biomol); with other subunits of the 20S proteasome
T1 sequence (P28074 60-263): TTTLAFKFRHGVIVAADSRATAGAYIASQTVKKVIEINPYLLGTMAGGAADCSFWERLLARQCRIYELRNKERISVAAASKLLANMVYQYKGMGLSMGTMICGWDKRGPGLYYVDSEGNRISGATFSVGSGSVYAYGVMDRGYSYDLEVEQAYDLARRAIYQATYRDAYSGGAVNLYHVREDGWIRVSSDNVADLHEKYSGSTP

[2] = target: T1, 20S proteasome β5 subunit (chymotrypsin-like activity); test: fluorometric ChT-L screening assay, % inhibition at […]; conditions: read-out: ChT-L Activity (% Inhibition at 20 μM) ^1
[3] = target: T1, 20S proteasome β5 subunit (chymotrypsin-like activity); test: fluorometric ChT-L assay with Suc-LLVY-AMC, continuous; IC50 […], Ki by Cheng-Prusoff; remark: listed apart in the source

Compound | inhibition at 20 µM [2] [%] | further results
FC(F)(F)C1(Cl)CN1c1ccc2cc3ccccc3cc2c1 (centres unmarked) [compound 21, CTMA 21] | – | Ki [1]: 1.6 ± 0.13 µM
FC(F)(F)C1(Cl)CN1c1ccc(N2CCOCC2)cc1 (centres unmarked) [compound 23, CTMA 23] | 41 ± 1.2 | –
FC(F)(F)C1(Cl)CN1c1ccc(N=Nc2ccccc2)cc1 (centres unmarked) [compound 22, CTMA 22] | – | Ki [3]: 1.6 ± 0.08 µM
O=C1CCCN1c1cccc(N2CC2(Cl)C(F)(F)F)c1 (centres unmarked) [compound 25, CTMA 25] | 34 ± 1.4 | –
N#Cc1ccc(N2CC2(Cl)C(F)(F)F)cc1 (centres unmarked) [compound 18, CTMA 18] | 37 ± 0.5 | –
